Columns and labels:
[1] = biological target: T1, recombinant active human PAI-1 (Homo sapiens (Human), UniProt P05121); assay: Fluorometric PAI-1/uPA IC50 plate assay at pH 7.8; type: biochemical; conditions: physiologic buffer
Procedure: To determine the efficacy of various synthesized compounds as PAI-1 inhibitors at pH 7.8, additional fluorometric plate assays were carried out to measure the half maximal inhibitory concentration (IC50) of these compounds on recombinant active human PAI-1 in vitro.
PAI-1 inhibitor compounds were dissolved in DMSO to a final concentration of (10-50 mM), depending upon solubility. […] Fluorescence, as a measure of the rate of AMC release by uPA, was read at the following wavelengths; excitation 370 nm, emission 440 nm. Controls included PAI-1 and uPA in the absence of compound and uPA alone. Percent PAI-1 inhibition was calculated using the following formula: [(uPA alone-uPA/PAI-1+ compound)/(uPA alone-PAI-1/uPA)]*100%. The IC50 was calculated using Graphit (IC50 0-100%).

[2] = biological target: T1, recombinant active human PAI-1; assay: Fluorometric PAI-1/uPA IC50 plate assay at pH 7.4; type: biochemical
Procedure: To determine the efficacy of various synthesized compounds as PAI-1 inhibitors, a fluorometric plate assay was carried out to measure the half maximal inhibitory concentration (IC50) of these compounds on recombinant active human PAI-1 in vitro. An IC50 is a measure of the effectiveness of a compound in inhibiting biological or biochemical function. Stated another way, IC50 represents the concentration of a drug that is required for 50% inhibition in vitro.
PAI-1 inhibitor compounds were dissolved in DMSO to a final concentration of (10-50 mM), depending upon solubility. Compounds were then diluted in physiologic buffer (40 mM HEPES, 100 mM NaCl, 0.05% Tween-20, pH7.4) containing 10% DMSO and a dilution series (from 0 to 1000 uM depending on solubility) was prepared. 80 μL of compound was added per well to a 96-well black, opaque microplate in duplicate. 10 μL of 20 nM Recombinant active human PAI-1 (Molecular Innovations) in physiologic buffer (40 mM HEPES, 100 mM NaCl, 0.05% Tween-20, 10% DMSO, pH 7.4), or […] physiologic buffer with 10% human plasma, was added and the mixture was agitated for 15 minutes at room temperature. 10 μL of 25 nM uPA (Rheotromb®) was added to each reaction well and the plate was agitated for an additional 30 minutes at room temperature. Tripeptide aminomethylcoumarin Gly-Gly-Arg-AMC (Calbiochem) fluorogenic substrate (100 μL of 100 μM) was then added and residual uPA activity was determined based upon cleavage of this substrate. The rate of AMC release by uPA (fluorescence) was measured at an excitation wavelength of 370 nm and an emission wavelength of 440 nm. Controls included PAI-1 and uPA in the absence of compound and uPA alone. Percent PAI-1 inhibition was calculated using the following formula: [(uPA alone-uPA/PAI-1+ compound)/(uPA alone-PAI-1/uPA)]*100%. The IC50 was calculated using Graphit (IC50 0-100%).

[3] = physiologic buffer (40 mM HEPES, 100 mM NaCl, 0.05% Tween-20, 10% DMSO), read-out: PAI-1/uPA IC50 in buffer
[4] = physiologic buffer with 1.5% BSA (15 mg/mL), read-out: PAI-1/uPA IC50 in 1.5% BSA buffer
[5] = physiologic buffer with 10% human plasma, read-out: PAI-1/uPA IC50 in 10% plasma buffer

T1 sequence (P05121 24-402): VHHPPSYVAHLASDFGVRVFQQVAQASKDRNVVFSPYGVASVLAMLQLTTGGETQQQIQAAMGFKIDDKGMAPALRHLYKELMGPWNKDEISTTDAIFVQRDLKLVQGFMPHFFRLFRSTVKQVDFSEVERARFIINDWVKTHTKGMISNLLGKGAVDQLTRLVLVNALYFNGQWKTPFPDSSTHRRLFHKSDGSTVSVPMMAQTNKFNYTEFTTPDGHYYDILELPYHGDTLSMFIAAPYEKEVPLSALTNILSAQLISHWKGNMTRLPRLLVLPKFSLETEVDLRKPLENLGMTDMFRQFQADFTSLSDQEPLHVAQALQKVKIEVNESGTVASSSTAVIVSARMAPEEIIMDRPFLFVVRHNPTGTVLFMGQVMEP

Compound: CCCCCCCCCCN(CCN(CCCCCCCCCC)S(=O)(=O)c1ccc(O)c(O)c1)S(=O)(=O)c1ccc(O)c(O)c1 [C168]
- IC50 [1]: 1.98 µM

Compound: CCCCCCCCN(CCCCCCCC)S(=O)(=O)c1ccc(O)c(O)c1 [C170]
- IC50 [1]: 5.49 µM

Compound: CCCCCCN(CCCCCC)S(=O)(=O)c1ccc(O)c(O)c1 [C171]
- IC50 [1]: 1.67 µM

Compound: CCCCCCCCN(Cc1cc(Cl)c(O)c(Cl)c1)S(=O)(=O)c1ccc(O)c(O)c1 [C172]
- IC50 [1]: 1.98 µM

Compound: CCCCCCCCN(S(=O)(=O)c1ccc(-c2ccc(OC(F)(F)F)cc2)cc1)S(=O)(=O)c1ccc(O)c(O)c1 [C173]
- IC50 [1]: 19.2 µM

Compound: CCCCCCCCN(CC(O)c1ccccc1)S(=O)(=O)c1ccc(O)c(O)c1 (centres unmarked) [C175]
- IC50 [1]: 6.74 µM

Compound: CCCCCCCCN(CCN(CCCCCCCC)S(=O)(=O)c1ccc(O)c(O)c1)S(=O)(=O)c1ccc(O)c(O)c1 [C176]
- IC50 [1]: 0.62 µM

Compound: CCCCCCCCN(Cc1cccc(Cl)c1)S(=O)(=O)c1ccc(O)c(O)c1 [C177]
- IC50 [1]: 5.11 µM

Compound: CCCCCCCCN(Cc1cccc(C(F)(F)F)c1)S(=O)(=O)c1ccc(O)c(O)c1 [C179]
- IC50 [1]: 2.4 µM

Compound: CCCCCCCCN(CCCCCC)S(=O)(=O)c1ccc(O)c(O)c1 [C180]
- IC50 [1]: 1.34 µM

Compound: CCCCCCCN(S(=O)(=O)c1ccc(O)c(O)c1)S(=O)(=O)c1ccc(O)c(O)c1 [C182]
- IC50 [1]: 0.033 µM

Compound: CCCCCCCCCN(S(=O)(=O)c1ccc(O)c(O)c1)S(=O)(=O)c1ccc(O)c(O)c1 [C183]
- IC50 [1]: 0.18 µM

Compound: CCCCCCCN(CCN(CCCCCCC)S(=O)(=O)c1ccc(O)c(O)c1)S(=O)(=O)c1ccc(O)c(O)c1 [C184]
- IC50 [1]: 0.59 µM

Compound: CCCCCCCCCN(CCN(CCCCCCCCC)S(=O)(=O)c1ccc(O)c(O)c1)S(=O)(=O)c1ccc(O)c(O)c1 [C185]
- IC50 [1]: 0.42 µM

Compound: O=S(=O)(c1ccc(O)c(O)c1)N1CCC[C@H]1CCc1ccccc1 [C186]
- IC50 [1]: 6.98 µM

Compound: CCCCCCc1ccc(NS(=O)(=O)c2ccc(O)c(O)c2)cc1 [C187]
- IC50 [1]: 0.91 µM

Compound: CCCCCCc1ccc(N(S(=O)(=O)c2ccc(O)c(O)c2)S(=O)(=O)c2ccc(O)c(O)c2)cc1 [C188]
- IC50 [1]: 0.12 µM

Compound: CCCCCCc1ccc(N(S(=O)(=O)c2ccc(CCC)cc2)S(=O)(=O)c2ccc(O)c(O)c2)cc1 [C189]
- IC50 [1]: 2.29 µM

Compound: O=S(=O)(Nc1ccc(-c2cccc(F)c2)cc1)c1ccc(O)c(O)c1 [C190]
- IC50 [1]: 9.7 µM

Compound: CCCCCCCCN(S(=O)(=O)c1ccc(CCCCC)cc1)S(=O)(=O)c1ccc(O)c(O)c1 [C191]
- IC50 [1]: 1.28 µM

Compound: O=C(Nc1ccccc1)[C@@H]1CCCN1S(=O)(=O)c1ccc(O)c(O)c1 [C193]
- IC50 [1]: 552 µM

Compound: CCCCCCCCCCCCc1ccc(N(S(=O)(=O)c2ccc(O)c(O)c2)S(=O)(=O)c2ccc(O)c(O)c2)cc1 [C195]
- IC50 [1]: 0.92 µM

Compound: CCCCCCCCCCN(CCN(C)S(=O)(=O)c1ccc(O)c(O)c1)S(=O)(=O)c1ccc(O)c(O)c1 [C196]
- IC50 [1]: 0.45 µM

Compound: O=S(=O)(c1ccccc1)N(CCc1ccc(O)c(O)c1)S(=O)(=O)c1ccc(O)c(O)c1 [C197]
- IC50 [1]: 0.173 µM

Compound: O=S(=O)(NCCc1ccc(O)c(O)c1)c1ccc(O)c(O)c1 [C198]
- IC50 [1]: 0.051 µM

Compound: O=C1S/C(=C\c2ccc(O)c(O)c2)C(=O)N1Cc1ccccc1 [C199]
- IC50 [1]: 5.36 µM

Compound: CCCCN(C)C(=O)CSc1ccc(O)c(O)c1 [C200]
- IC50 [1]: 58.4 µM

Compound: CC(C)(C)n1nc(-c2ccccc2)nc1-c1ccc(O)c(O)c1 [C201, 4-(1-(tert-butyl)-3-phenyl-1H-1,2,4-triazol-5-yl)benzene-1,2-diol]
- IC50 [1]: 181 µM

Compound: O=C1S/C(=C\c2ccc(O)c(O)c2)C(=O)N1Cc1ccc(Br)cc1 [C203]
- IC50 [1]: 17.1 µM

Compound: O=C(OCC(CNS(=O)(=O)c1cccc(C(F)(F)F)c1)OC(=O)c1ccc(O)c(O)c1)c1ccc(O)c(O)c1 (centres unmarked) [C204]
- IC50 [1]: 0.035 µM

Compound: O=S(=O)(c1ccc(O)c(O)c1)N1CCc2ccccc21 [C205]
- IC50 [1]: 5.05 µM

Compound: O=C1S/C(=C\c2ccc(O)c(O)c2)C(=O)N1Cc1cccc(Br)c1 [C206, (Z)-3-(3-bromobenzyl)-5-(3,4-dihydroxybenzylidene)thiazolidine-2,4-dione]
- IC50 [1]: 4.96 µM

Compound: O=C1S/C(=C\c2ccc(O)c(O)c2)C(=O)N1Cc1cccc(-c2ccc(OC(F)(F)F)cc2)c1 [C207, (Z)-5-(3,4-dihydroxybenzylidene)-3-((4′-(trifluoromethoxy)-[1,1′-biphenyl]-3-yl)methyl)thiazolidine-2,4-dione]
- IC50 [1]: 16.8 µM

Compound: CC(C)(C)n1nc(-c2ccccc2)nc1Cc1ccc(O)c(O)c1 [C208]
- IC50 [1]: 77.2 µM

Compound: O=S(=O)(NCCc1ccc(O)c(O)c1)c1ccccc1 [C210]
- IC50 [1]: 190 µM

Compound: CCCCCc1nc(Cc2ccc(O)c(O)c2)n(C(C)(C)C)n1 [C220]
- IC50 [1]: 116 µM

Compound: CC(C)(C)n1nc(C2CC2)nc1Cc1ccc(O)c(O)c1 [C221]
- IC50 [1]: 1610 µM

Compound: CC(C)(C)n1nc(-c2ccc(O)cc2)nc1Cc1ccc(O)c(O)c1 [C222]
- IC50 [1]: 236 µM

Compound: CCCCCc1nc(Cc2ccc(O)c(O)c2)n(C(C)(C)C)n1 [C223]
- IC50 [1]: 125 µM

Compound: CCCCCCCCN(S(=O)(=O)c1ccc(O)cc1)S(=O)(=O)c1ccc(O)c(O)c1 [C224]
- IC50 [1]: 4.34 µM

Compound: O=S(=O)(NCCCc1ccccc1)c1ccc(O)c(O)c1 [C232]
- IC50 [1]: 13.3 µM

Compound: O=S(=O)(NCCc1ccccc1)c1ccc(O)c(O)c1 [C233]
- IC50 [1]: 74.8 µM

Compound: O=C(OCCOC(=O)c1ccc(O)c(O)c1)c1cc(O)cc(O)c1 [C236]
- IC50 [1]: 174 µM

Compound: O=C(O)CCCCNS(=O)(=O)c1ccc(O)c(O)c1 [C249]
- IC50 [1]: 663 µM

Compound: NC(=O)[C@H](Cc1ccccc1)NS(=O)(=O)c1ccc(O)c(O)c1 [C270]
- IC50 [1]: 29.5 µM

Compound: O=C(O)CCCCCNS(=O)(=O)c1ccc(O)c(O)c1 [C271]
- IC50 [1]: 1.82 µM

Compound: O=C(O)[C@H](Cc1ccccc1)NS(=O)(=O)c1ccc(O)c(O)c1 [C272]
- IC50 [1]: 16.4 µM

Compound: O=C(O)[C@@H](NS(=O)(=O)c1ccc(O)c(O)c1)c1ccccc1 [C273]
- IC50 [1]: 55.6 µM

Compound: O=C(O)[C@H](NS(=O)(=O)c1ccc(O)c(O)c1)c1ccccc1 [C274]
- IC50 [1]: 73.6 µM

Compound: O=C(O)[C@@H](Cc1ccccc1)NS(=O)(=O)c1ccc(O)c(O)c1 [C275]
- IC50 [1]: 30.5 µM

Compound: CCCCCCCCN(S(=O)(=O)c1cccc(O)c1)S(=O)(=O)c1ccc(O)c(O)c1 [C292]
- IC50 [1]: 4.94 µM
- IC50 [2, 3]: 68 µM

Compound: CCCCCCCCN(S(=O)(=O)c1cccc(O)c1)S(=O)(=O)c1cccc(O)c1 [C293]
- IC50 [1]: 77.6 µM
- IC50 [2, 3]: 123 µM

Compound: CCCCCCCCN(S(=O)(=O)c1ccc(O)cc1)S(=O)(=O)c1cccc(O)c1 [C294]
- IC50 [1]: 120 µM
- IC50 [2, 3]: 234 µM

Compound: O=S(=O)(NCc1ccc(Cl)c(C(F)(F)F)c1)c1ccc(O)c(O)c1 [C303]
- IC50 [1]: 13.6 µM
- IC50 [2, 3]: 12.6 µM

Compound: O=C(CCc1ccc(O)c(O)c1)NCc1ccc(Cl)c(C(F)(F)F)c1 [C330, N-(4-chloro-3-(trifluoromethyl)benzyl)-3-(3,4-dihydroxyphenyl)propanamide]
- IC50 [1]: 423 µM
- IC50 [2, 3]: 365 µM
- IC50 [2, 4]: 112 µM
- IC50 [2, 5]: 115 µM

Compound: O=C(NCc1ccc(Cl)cc1)c1ccc(O)c(O)c1 [C361]
- IC50 [2, 3]: 232 µM
- IC50 [2, 4]: 2000 µM
- IC50 [2, 5]: 851 µM

Compound: Cc1ccc(CNC(=O)C(=O)NN)cc1 [C362]
- IC50 [2, 3]: 533 µM
- IC50 [2, 4]: 353 µM
- IC50 [2, 5]: 229 µM

Compound: O=C(NCc1ccc(C(F)(F)F)cc1)c1ccc(O)c(O)c1 [C363]
- IC50 [2, 3]: 199 µM
- IC50 [2, 4]: 751 µM
- IC50 [2, 5]: 309 µM

Compound: O=C(NCc1cccc(C(F)(F)F)c1)c1ccc(O)c(O)c1 [C364]
- IC50 [2, 3]: 475 µM
- IC50 [2, 4]: 898 µM
- IC50 [2, 5]: 533 µM

— patent publication US9718760B2, “Plasminogen activator inhibitor-1 inhibitors and methods of use thereof” (THE REGENTS OF THE UNIVERSITY OF MICHIGAN, priority 2012, dated 2017)
